From US20040054130A1, “Insulin potentiating peptides” (priority 2000, published 2004) come the findings set out here.

Square brackets hold non-standard residues; d marks the D form. Ends that are not written are not given here.

The test system of assay [1] is C57BL/6J ob/ob mice. Briefly: Intraperitoneal glucose tolerance test (IPGTT) after chronic administration. The assay is classed as in vivo, mouse. The method, then: An intraperitoneal glucose tolerance test was conducted to determine whether the clearance of a glucose load was enhanced. […], five receiving saline and five receiving peptide 3. At 14 days after chronic administration of saline or peptide 3, mice were fasted for 4 hours, then anaesthetized and eye-bled for day 14 plasma metabolite analysis. Half of each saline or peptide 3 treatment group was given a single intraperitoneal injection of glucose (1 g/kg dissolved in saline), and the other half saline (equivalent dose). Mice were eye-bled at 30, 60 and 120 minutes after glucose administration, and blood glucose levels were determined.

Assay [2] has as its system C57BL/6J ob/ob mice. The assay can be described thus: Plasma insulin radioimmunoassay after chronic administration. In kind it is in vivo, mouse. The settings on record: after 14 days treatment. The method, then:
(§1) Mice selected for this experiment were initially fasted for 4 hours, then anaesthetized with a single injection of sodium pentobarbitone (35 mg/kg). A blood sample was collected from each mouse by eye-bleed for the assessment of plasma glucose and insulin levels (day 0). Collected blood samples were stored at −20° C. until analysis was performed. A single Alzet mini-pump (#1002, Alzet, USA) containing either sterile saline (100 μl; n=14) or peptide 3 (20 μmol/kg dissolved in 100 μl saline; n=14) was inserted under the skin between the scapula of the mice. The incision was clamped and disinfected using iodine. The pumps were left for 14 days, and 5 body-weight, and food measurements were recorded during this period, at days 0, 4, 7, 10 and 14. Blood samples were collected on day 0 and 14 days post-saline (n=5) or peptide 3 (n=4) administration for plasma glucose analysis. The results reported below are expresses as mean +/− standard error. (a) Plasma insulin Plasma insulin levels were quantitatively determined in ob/ob mice, using an insulin radioimmunoassay kit (Linco Research Inc. USA) according to the manufacturer's instructions.

Assay [3] deals with Zucker fatty (fa/fa) female rats. Briefly: Acute oral administration, blood glucose. In kind it is in vivo, rat. As for the experimental part: Overnight fasted Zucker fatty (fa/fa) female rats were administered peptide 3 (ADD9903) by oral gavage at a concentration of 20 μmol/kg of body weight. Rats were then immediately anaesthetized with nembutal administered intraperitoneally in order to avoid variations arising due to activity of the rats. Blood samples were collected from the tail vein at time 0 min (immediately after oral gavage and before anaesthetic), 60 min, 120 min and 180 min, and analyzed for blood glucose by the glucose oxidation method using a YSI Model-2300 STAT glucose analyzer (Yellow Spring, Ohio). Six rats were analyzed for each of the control and treated groups.

Assay [4] deals with Zucker fatty (fa/fa) rats. Briefly: Basal blood glucose determination after i.p. peptide. The assay is classed as in vivo, rat. The settings on record: 10 μmol/kg body weight i.p., over 150 min, vs saline. As for the experimental part: Overnight-fasted Zucker fatty(fa/fa) female rats were anaesthetized with sodium pentobarbitone (60 mg/kg body weight). After 45 min, basal blood glucose samples were taken from the tail vein, followed immediately by intraperitoneal (i.p.) injection of saline (control) or the peptide analogue (test, 10 μmol/kg body weight) in 0.4 ml of saline. Blood samples were taken at 15, 30, 60, 90, 120, 150 minutes after injection, and the blood glucose level in each sample was measured immediately by the glucose oxidase method, using a YSI Model-2300 STAT glucose analyzer (Yellow Spring, Ohio). Six animals for each group were used.
The reduction of basal blood glucose levels in animals by different peptide analogues administered intraperitoneally (i.p.)at a dose of 10 μmol/kg body weight was measured for over 150 min.

Assay [5] has as its system C57BL/6J ob/ob mice. Briefly: Chronic administration (14 day mini-pump): body weight, food intake, plasma glucose. In kind it is in vivo, mouse. The method, then:
as §1, with “The effects of chronic administration of peptide 3 in the C57Bl/6J ob/ob diabetic model were evaluated by measurements of a number of parameters, including body weight, food intake, plasma glucose levels, plasma insulin levels, intraperitoneal glucose tolerance test and glucose uptake by adipose tissue (ex vivo). Male and female C57BL/6J ob/ob mice aged 12-15 weeks old were used. Fasting blood glucose levels were determined for all mice 14 days prior to experimentation. Only mice with fasting blood glucose levels >7.0 mmol/l were used in the study. Mice” for “Mice”, “error.” for “error. (a) Plasma insulin Plasma insulin levels were quantitatively determined in ob/ob mice, using an insulin radioimmunoassay kit (Linco Research Inc. USA) according to the manufacturer's instructions.”

[6] abbreviates: 20 μmol/kg by mini-pump, 14 days.

With “Arg-D-Ala-Phe-Phe-NH2 (R[dA]FF-NH2; N-terminus assumed; SMILES C[C@@H](NC(=O)[C@@H](N)CCCNC(=N)N)C(=O)N[C@@H](Cc1ccccc1)C(=O)N[C@@H](Cc1ccccc1)C(N)=O) [Peptide 3]”, the “increase in plasma glucose after glucose bolus” value in assay [1] (30 min after 1 g/kg glucose i.p.) was found to be 115%. Further, in assay [1] (120 min after glucose injection), the “reduction of blood glucose compared to saline-treated mice” value was 47%. Moreover, in assay [1] (prior to glucose injection, day 14), the “lower basal blood glucose level compared to saline-treated mice” value is 46.1%. This substance came in with a plasma insulin level in assay [2] of 17.10 ± 5.99 ng/mL. The “decrease in blood glucose, oral compared to intraperitoneal administration” value in assay [3] (at 120 min (P<0.005)) is reported as “more profound decrease”. Besides, the “time of maximal decrease in blood glucose” value in assay [3] (oral gavage 20 μmol/kg (P<0.005)) is listed as 120 min. Further, the “blood glucose levels compared to control rats” value in assay [3] (oral gavage 20 μmol/kg, significant from 60 min (P<0.05)) is listed as “significantly reduced”. For the same substance, the “hypoglycaemic effect (reduction of basal blood glucose level)” value in assay [4] is reported as “significant hypoglycaemic effects”. Besides, the “hypoglycaemic effect (reduction of basal blood glucose level)” value in assay [4] (listed as Arg-D-Ala-Phe-Phe amide) is recorded as “Increased potency”. Also, in assay [5] (setting [6]), the “body weight gain vs saline-infused mice” value is on record as “no significant difference” and the “food intake vs saline-infused mice” value was “no significant difference”. Further, the “plasma glucose levels vs saline-infused control mice” value in assay [5] (continuous infusion 14 days (P<0.025)) was “significantly decreased”. Further, the “reduction in plasma glucose levels” value in assay [5] (day 0 to day 14, 4 h fasted) was determined as 11.60 ± 3.63 mmol/L.
